# Test results from US20210261642A1, “SOLUBILITY OF GLP-1 PEPTIDE” (Novo Nordisk A/S, priority 2017, published 2021).
# Experiment: Assay (I): Determination of Solubility (96-well plate, pH 3.0-11.0, organic solvent 0-70% w/w, UV absorption at 280 nm)
# Assay type: physicochemical
# Conditions: Method 1
# Protocol: Assay (I): Determination of Solubility
# 96-Well Plate Preparation
# 96-well plates containing target peptide in a solid form were prepared in one of two ways:
# Method 1 (evaporation): Addition of 100 μl stock solution of said peptide at a concentration of 4-6 mg/ml to each well of a 96-well half area plate (150 μl well size). Subsequently the solvent was evaporated by applying a vacuum until the solvent was completely removed.
# Method 2 (precipitation): Addition of a certain volume of a stock solution of said peptide containing to each well of a 96-well half area plate followed by the addition of a certain volume of concentrated phosphoric acid to obtain a pH of 4.6 followed by addition of a certain volume of ethanol resulting in a final ethanol concentration of 20% v/v. Subsequently the plate was stored at 4° C. for 1 h and then centrifuged at 4,000 rpm for 20 min. Finally the supernatant was removed. The concentration of the stock solution was chosen in a way that the final amount of peptide after supernatant removal was >0.4 mg per well.
# In both cases the stock solution was prepared by adding de-ionized water to a certain amount of powder of said peptide followed by a stepwise addition of small amounts of a concentrated sodium hydroxide solution until said peptide was completely in solution.
# To determine solubility of a target peptide at different pH and organic solvent concentrations, two different buffer systems were used in independent experiments to cover the whole range from pH 3.0 to pH 11.0. Buffer system 1 covers pH 3.0-7.5 and buffer system 2 covers pH 7.5-11.0. For each buffer system 96 different solvent compositions were premixed in the following way: • 1. A low pH buffer (adjusted to either pH 3.0 or pH 7.5) and a high pH buffer (adjusted to either pH 7.5 or pH 11.0) were mixed at 8 different ratios to obtain values between pH 3.0 and pH 7.5 or pH 7.5 and pH 11.0, respectively. The total volume after mixing was 300 μl. • 2. 12 different amounts of organic solvent were then added to these buffers to obtain organic solvent (e.g. ethanol) concentrations between 0 and 70% w/w. • 3. Water was then added to obtain a total weight of 1.0 g of solvent in each well.
# After preparing the 96 different solvent systems, 100 μl of each system was transferred to the 96-well plate containing the solid form of the target peptide (prepared as described in the section “96-well plate preparation”). The plate was then stored at a given temperature (between 5° C. and 70° C.) for a given time on a rotating shaker set to 400 rpm. At regular time intervals the plate was centrifuged (4,000 rpm for 10 min) and a 10 μl sample was taken from each well. The samples were then analysed by UV absorption at 280 nm for peptide quantification. Peptide concentration results are given as UV absorption at 280 nm of the sample subtracted UV absorption at 280 nm of a well comprising 10 μl water.
# The buffers used were as follows: • Buffer system 1 (for the pH range from pH 3.0-7.5)
# • Buffer system 2 (for the pH ranae from pH 7.5-11.0)
# Solubility of liraglutide was determined using Assay (I) described herein. Liraglutide was prepared using Method 1 (evaporation) or Method 2 (precipitation) as described in subsection “96-well plate preparation”.
smiles,measurement,setting,value
"CCCCCCCCCCCCCCCC(=O)N[C@@H](CCC(=O)NCCCC[C@H](NC(=O)[C@H](C)NC(=O)[C@H](C)NC(=O)[C@H](CCC(N)=O)NC(=O)CNC(=O)[C@H](CCC(=O)O)NC(=O)[C@H](CC(C)C)NC(=O)[C@H](Cc1ccc(O)cc1)NC(=O)[C@H](CO)NC(=O)[C@H](CO)NC(=O)[C@@H](NC(=O)[C@H](CC(=O)O)NC(=O)[C@H](CO)NC(=O)[C@@H](NC(=O)[C@H](Cc1ccccc1)NC(=O)[C@@H](NC(=O)CNC(=O)[C@H](CCC(=O)O)NC(=O)[C@H](C)NC(=O)[C@@H](N)Cc1cnc[nH]1)[C@@H](C)O)[C@@H](C)O)C(C)C)C(=O)N[C@@H](CCC(=O)O)C(=O)N[C@@H](Cc1ccccc1)C(=O)N[C@H](C(=O)N[C@@H](C)C(=O)N[C@@H](Cc1c[nH]c2ccccc12)C(=O)N[C@@H](CC(C)C)C(=O)N[C@H](C(=O)N[C@@H](CCCNC(=N)N)C(=O)NCC(=O)N[C@@H](CCCNC(=N)N)C(=O)NCC(=O)O)C(C)C)[C@@H](C)CC)C(=O)O [liraglutide, Arg34,Lys26-(N-epsilon-(gamma-L-glutamyl(N-alfa-hexadecanoyl)))-GLP-1(7-37)]",Peptide concentration after 180 min,"MeCN 50.9% w/w, pH 8.0, 5° C.",2.2 mg/mL
same,Peptide concentration after 24 h,"MeCN 50.9% w/w, pH 8.0, 5° C.",>4.0 mg/mL
same,Peptide concentration after 5 min,"MeCN 50.9% w/w, pH 8.5, 5° C.",0.6 mg/mL
same,Peptide concentration after 180 min,"MeCN 50.9% w/w, pH 8.5, 5° C.",2.6 mg/mL
same,Peptide concentration after 24 h,"MeCN 50.9% w/w, pH 8.5, 5° C.",>4.0 mg/mL
same,Peptide concentration after 5 min,"MeCN 50.9% w/w, pH 9.0, 5° C.",0.6 mg/mL
same,Peptide concentration after 180 min,"MeCN 50.9% w/w, pH 9.0, 5° C.",2.0 mg/mL
same,Peptide concentration after 24 h,"MeCN 50.9% w/w, pH 9.0, 5° C.",>4.0 mg/mL
same,Peptide concentration after 5 min,"MeCN 50.9% w/w, pH 9.5, 5° C.",1.0 mg/mL
same,Peptide concentration after 180 min,"MeCN 50.9% w/w, pH 9.5, 5° C.",2.4 mg/mL
same,Peptide concentration after 24 h,"MeCN 50.9% w/w, pH 9.5, 5° C.",>4.0 mg/mL
same,Peptide concentration after 5 min,"MeCN 50.9% w/w, pH 10.0, 5° C.",1.5 mg/mL
same,Peptide concentration after 180 min,"MeCN 50.9% w/w, pH 10.0, 5° C.",2.6 mg/mL
same,Peptide concentration after 24 h,"MeCN 50.9% w/w, pH 10.0, 5° C.",>4.0 mg/mL
same,Peptide concentration after 5 min,"MeCN 50.9% w/w, pH 10.5, 5° C.",0.9 mg/mL
same,Peptide concentration after 180 min,"MeCN 50.9% w/w, pH 10.5, 5° C.",2.1 mg/mL
same,Peptide concentration after 24 h,"MeCN 50.9% w/w, pH 10.5, 5° C.",3.8 mg/mL
same,Peptide concentration after 5 min,"MeCN 50.9% w/w, pH 11.0, 5° C.",0.7 mg/mL
same,Peptide concentration after 180 min,"MeCN 50.9% w/w, pH 11.0, 5° C.",2.2 mg/mL
same,Peptide concentration after 24 h,"MeCN 50.9% w/w, pH 11.0, 5° C.",>4.0 mg/mL
same,Peptide concentration after 5 min,"MeCN 57.3% w/w, pH 8.0, 5° C.",0.5 mg/mL
same,Peptide concentration after 180 min,"MeCN 57.3% w/w, pH 8.0, 5° C.",1.6 mg/mL
same,Peptide concentration after 24 h,"MeCN 57.3% w/w, pH 8.0, 5° C.",3.4 mg/mL
same,Peptide concentration after 5 min,"MeCN 57.3% w/w, pH 8.5, 5° C.",0.5 mg/mL
same,Peptide concentration after 180 min,"MeCN 57.3% w/w, pH 8.5, 5° C.",1.6 mg/mL
same,Peptide concentration after 24 h,"MeCN 57.3% w/w, pH 8.5, 5° C.",3.7 mg/mL
same,Peptide concentration after 5 min,"MeCN 57.3% w/w, pH 9.0, 5° C.",0.5 mg/mL
same,Peptide concentration after 180 min,"MeCN 57.3% w/w, pH 9.0, 5° C.",1.9 mg/mL
same,Peptide concentration after 24 h,"MeCN 57.3% w/w, pH 9.0, 5° C.",>4.0 mg/mL
same,Peptide concentration after 5 min,"MeCN 57.3% w/w, pH 9.5, 5° C.",1.0 mg/mL
same,Peptide concentration after 180 min,"MeCN 57.3% w/w, pH 9.5, 5° C.",2.0 mg/mL
same,Peptide concentration after 24 h,"MeCN 57.3% w/w, pH 9.5, 5° C.",4.0 mg/mL
same,Peptide concentration after 5 min,"MeCN 57.3% w/w, pH 10.0, 5° C.",1.4 mg/mL
same,Peptide concentration after 180 min,"MeCN 57.3% w/w, pH 10.0, 5° C.",1.6 mg/mL
same,Peptide concentration after 24 h,"MeCN 57.3% w/w, pH 10.0, 5° C.",1.8 mg/mL
same,Peptide concentration after 5 min,"MeCN 57.3% w/w, pH 10.5, 5° C.",1.1 mg/mL
same,Peptide concentration after 180 min,"MeCN 57.3% w/w, pH 10.5, 5° C.",1.1 mg/mL
same,Peptide concentration after 24 h,"MeCN 57.3% w/w, pH 10.5, 5° C.",1.6 mg/mL
same,Peptide concentration after 5 min,"MeCN 57.3% w/w, pH 11.0, 5° C.",0.9 mg/mL
same,Peptide concentration after 180 min,"MeCN 57.3% w/w, pH 11.0, 5° C.",1.4 mg/mL
same,Peptide concentration after 24 h,"MeCN 57.3% w/w, pH 11.0, 5° C.",2.6 mg/mL
same,Peptide concentration after 5 min,"MeCN 63.6% w/w, pH 8.0, 5° C.",0.3 mg/mL
same,Peptide concentration after 180 min,"MeCN 63.6% w/w, pH 8.0, 5° C.",0.6 mg/mL
same,Peptide concentration after 24 h,"MeCN 63.6% w/w, pH 8.0, 5° C.",2.0 mg/mL
same,Peptide concentration after 5 min,"MeCN 63.6% w/w, pH 8.5, 5° C.",0.6 mg/mL
same,Peptide concentration after 180 min,"MeCN 63.6% w/w, pH 8.5, 5° C.",0.8 mg/mL
same,Peptide concentration after 24 h,"MeCN 63.6% w/w, pH 8.5, 5° C.",2.1 mg/mL
same,Peptide concentration after 5 min,"MeCN 63.6% w/w, pH 9.0, 5° C.",1.4 mg/mL
same,Peptide concentration after 180 min,"MeCN 63.6% w/w, pH 9.0, 5° C.",0.9 mg/mL
same,Peptide concentration after 24 h,"MeCN 63.6% w/w, pH 9.0, 5° C.",2.6 mg/mL
same,Peptide concentration after 5 min,"MeCN 63.6% w/w, pH 9.5, 5° C.",0.2 mg/mL
